From US8686018B2, “Pharmaceutical composition” (Eisai R&D Management Co., Ltd., priority 2010, dated 2014)

What follows are compounds tested against T1, EP4 (Homo sapiens (Human), UniProt P35408) (assay: Radioligand EP4 receptor binding assay). Details: Chem-1 cell membranes overexpressing human EP4, [3H]-PGE2 displacement.
Description: The radioligand EP4 binding assay was performed using ChemiScreen recombinant human EP4 receptor membrane preparations from Millipore, according to manufacturer's instructions. Briefly, membranes prepared from Chem-1 cells overexpressing human EP4 cDNA (Millipore) were mixed with 1.8 nmol.L^−1 [^3H]-PGE2 and 5 μmol.L^−1 unlabelled PGE2 in the presence or absence of various concentrations of testing compounds in binding buffer (50 mmol.L^−1 HEPES, pH 7.4, 5 mmol.L^−1 MgCl2, 1 mmol.L^−1 CaCl2, 0.2% BSA) in a nonbinding 96-well plate, and incubated for 1-2 h at room temperature. Prior to filtration, a GF/C 96-well filter plate was coated with 0.33% polyethyleneimine for 30 min, then washed with 50 mmol.L^−1 HEPES, pH 7.4, 0.5% BSA. Binding reactions were transferred to the filter plate, and washed 3 times with Wash Buffer (1 mL per well per wash). The plate was dried and radioactivity counted.

T1 sequence (P35408 whole entry): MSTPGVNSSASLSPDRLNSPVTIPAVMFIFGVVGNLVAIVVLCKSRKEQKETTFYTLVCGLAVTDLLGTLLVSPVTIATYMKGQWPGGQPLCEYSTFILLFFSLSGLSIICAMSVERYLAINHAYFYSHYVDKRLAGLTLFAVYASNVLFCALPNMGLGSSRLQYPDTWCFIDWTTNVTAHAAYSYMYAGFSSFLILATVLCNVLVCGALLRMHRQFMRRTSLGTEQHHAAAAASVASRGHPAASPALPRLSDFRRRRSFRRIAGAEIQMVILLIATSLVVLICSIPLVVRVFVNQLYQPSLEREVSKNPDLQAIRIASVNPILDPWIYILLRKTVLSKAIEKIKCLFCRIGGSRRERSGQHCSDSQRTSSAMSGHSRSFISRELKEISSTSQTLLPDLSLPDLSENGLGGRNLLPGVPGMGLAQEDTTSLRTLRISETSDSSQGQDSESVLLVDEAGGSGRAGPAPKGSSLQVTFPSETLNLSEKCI

For `Cc1nn(C)c(Oc2cccc(C(F)(F)F)c2)c1C(=O)NC1(c2ccc(C(=O)O)cc2)CC1` [ER-885740-00], which Ki is on record?
The Ki was 43 nM.

How did the Ki turn out when `Cc1nn(C)c(Oc2cccc(C(F)(F)F)c2)c1C(=O)N[C@@H](C)c1ccc(C(=O)O)cc1` [ER-885290-00] was run?
Its Ki is 14 nM.

Which Ki does the source give for `Cn1nc(C(F)(F)F)c(C(=O)NC2(c3ccc(C(=O)O)cc3)CC2)c1Oc1cccc(C(F)(F)F)c1` [ER-885741-00] here?
The Ki was 16 nM.

How did the Ki turn out when `C[C@H](NC(=O)c1c(C(F)F)nn(C)c1Oc1cccc(OC(F)F)c1)c1ccc(C(=O)O)cc1` [ER-886090-00] was run?
The Ki was 10 nM.

How did the Ki turn out when `C[C@H](NC(=O)c1c(C(F)(F)F)nn(C)c1Oc1ccc(Cl)c(Cl)c1)c1ccc(C(=O)O)cc1` [ER-886074-00] was run?
Its Ki is 13 nM.

Which Ki does the source give for `C[C@H](NC(=O)c1c(C(F)F)nn(C)c1Oc1cccc(Cl)c1)c1ccc(C(=O)O)cc1` [ER-886045-00] here?
The Ki was 50 nM.

Which Ki does the source give for `Cn1nc(C(F)F)c(C(=O)NC2(c3ccc(C(=O)O)cc3)CC2)c1Oc1cccc(C(F)(F)F)c1` [ER-886078-00] here?
Its Ki is 8 nM.

Which Ki does the source give for `C[C@H](NC(=O)c1c(C(F)F)nn(C)c1Oc1cccc(C(F)F)c1)c1ccc(C(=O)O)cc1` [ER-887480-00] here?
Its Ki is 26 nM.

Each compound was assayed against T1, EP4 (assay: CRE-PLAP reporter assay). Details: SE302 (HEK/293 clone) cells with endogenous EP4, stimulated with 3 ng/mL PGE2 overnight.
Assay type: cell-based
Description: Cells were maintained in DMEM/F12 (50:50) (MediaTech) supplemented with 10% FBS (Tissue Culture Biologicals) plus penicillin/streptomycin. When used for assays, cells were plated in a 96-well plate at 2×10^4 cells/100 μL/well in serum-free assay medium (DMEM/F12 supplemented with 0.1% BSA plus penicillin/streptomycin) and incubated for 4-6 h.
Exemplary compounds of the present invention were assayed according to the methods set forth above in the CRE-PLAP reporter assay described above.

For `Cc1cccc(Oc2c(C(=O)N[C@@H](C)c3ccc(C(=O)O)cc3)c(C)nn2C)c1` [ER-886032-00], which IC50 is on record?
The IC50 was 356 nM.

How did the IC50 turn out when `C[C@H](NC(=O)c1c(C(F)(F)F)nn(C)c1Oc1cccc(F)c1)c1ccc(C(=O)O)cc1` [ER-886072-00] was run?
Its IC50 is 132 nM.

With `Cn1nc(C(F)F)c(C(=O)NC2(c3ccc(C(=O)O)cc3)CC2)c1Oc1ccc(C(F)(F)F)cc1` [ER-888366-00] as the compound, how does the IC50 read?
Its IC50 is 15 nM.

With `C[C@H](NC(=O)c1c(C(F)(F)F)nn(C)c1Oc1ccc(F)c(F)c1)c1ccc(C(=O)O)cc1` [ER-886073-00] as the compound, how does the IC50 read?
Its IC50 is 109 nM.

With `Cn1nc(C(F)(F)F)c(C(=O)NC2(c3ccc(C(=O)O)cc3)CC2)c1Oc1ccc(Cl)cc1` [ER-888368-00] as the compound, how does the IC50 read?
The IC50 was 18 nM.

With `Cc1nn(C)c(Oc2cccc(F)c2)c1C(=O)N[C@@H](C)c1ccc(C(=O)O)cc1` [ER-885717-00] as the compound, how does the IC50 read?
Its IC50 is 974 nM.

Which IC50 does the source give for `C[C@H](NC(=O)c1c(C(F)F)nn(C)c1Oc1ccc(Cl)cc1)c1ccc(C(=O)O)cc1` [ER-888371-00] here?
Its IC50 is 89 nM.

How did the IC50 turn out when `Cc1ccc(Oc2c(C(=O)N[C@@H](C)c3ccc(C(=O)O)cc3)c(C)nn2C)cc1` [ER-885749-00] was run?
Its IC50 is 451 nM.

Which IC50 does the source give for `Cn1nc(C(F)F)c(C(=O)NC2(c3ccc(C(=O)O)cc3)CC2)c1Oc1cccc(Cl)c1` [ER-888355-00] here?
The IC50 was 157 nM.

With `C[C@H](NC(=O)c1c(C(F)F)nn(C)c1Oc1ccc(Cl)c(Cl)c1)c1ccc(C(=O)O)cc1` [ER-888024-00] as the compound, how does the IC50 read?
Its IC50 is 31 nM.

For `Cn1nc(C(F)F)c(C(=O)NC2(c3ccc(C(=O)O)cc3)CC2)c1Oc1ccc(Cl)cc1` [ER-888370-00], which IC50 is on record?
Its IC50 is 35 nM.

`Cn1nc(C(F)F)c(C(=O)NC2(c3ccc(C(=O)O)cc3)CC2)c1Oc1ccc(Cl)c(Cl)c1` [ER-888348-00] was tested. Which IC50 did it give?
The IC50 was 17 nM.

For `Cc1nn(C)c(Oc2cccc(C(F)(F)F)c2)c1C(=O)NC1(c2ccc(C(=O)O)cc2)CC1` [ER-885740-00], which IC50 is on record?
Its IC50 is 12 nM.

`Cc1nn(C)c(Oc2cccc(Cl)c2)c1C(=O)N[C@@H](C)c1ccc(C(=O)O)cc1` [ER-885744-00] was tested. Which IC50 did it give?
Its IC50 is 168 nM.

How did the IC50 turn out when `Cc1nn(C)c(Oc2cccc(C(F)(F)F)c2)c1C(=O)N[C@@H](C)c1ccc(C(=O)O)cc1` [ER-885290-00] was run?
Its IC50 is 18 nM.

How did the IC50 turn out when `COc1cc(OC)cc(Oc2c(C(=O)N[C@@H](C)c3ccc(C(=O)O)cc3)c(C)nn2C)c1` [ER-886035-00] was run?
Its IC50 is 3660 nM.

How did the IC50 turn out when `Cc1nn(C)c(Oc2cc(F)cc(Cl)c2)c1C(=O)N[C@@H](C)c1ccc(C(=O)O)cc1` [ER-886024-00] was run?
The IC50 was 637 nM.

`Cc1nn(C)c(Oc2ccc(F)c(F)c2)c1C(=O)N[C@@H](C)c1ccc(C(=O)O)cc1` [ER-885718-00] was tested. Which IC50 did it give?
Its IC50 is 467 nM.

`Cc1nn(C)c(Oc2ccc(Cl)cc2)c1C(=O)N[C@@H](C)c1ccc(C(=O)O)cc1` [ER-880663-00] was tested. Which IC50 did it give?
The IC50 was 619 nM.

How did the IC50 turn out when `C[C@H](NC(=O)c1c(C(F)(F)F)nn(C)c1Oc1ccc(Cl)cc1)c1ccc(C(=O)O)cc1` [ER-888369-00] was run?
The IC50 was 89 nM.

With `C[C@H](NC(=O)c1c(C(F)(F)F)nn(C)c1Oc1cccc(Cl)c1)c1ccc(C(=O)O)cc1` [ER-885289-00] as the compound, how does the IC50 read?
Its IC50 is 45 nM.

For `Cc1nn(C)c(Oc2cccc(OC(F)(F)F)c2)c1C(=O)N[C@@H](C)c1ccc(C(=O)O)cc1` [ER-886061-00], which IC50 is on record?
Its IC50 is 89 nM.

How did the IC50 turn out when `Cc1nn(C)c(Oc2cccc(Cl)c2Cl)c1C(=O)N[C@@H](C)c1ccc(C(=O)O)cc1` [ER-886022-00] was run?
Its IC50 is 719 nM.

`Cc1cc(C)cc(Oc2c(C(=O)N[C@@H](C)c3ccc(C(=O)O)cc3)c(C)nn2C)c1` [ER-886033-00] was tested. Which IC50 did it give?
The IC50 was 2120 nM.

For `Cc1nn(C)c(Oc2cc(Cl)cc(Cl)c2)c1C(=O)N[C@@H](C)c1ccc(C(=O)O)cc1` [ER-885721-00], which IC50 is on record?
The IC50 was 846 nM.

`Cc1nn(C)c(Oc2ccc(F)cc2)c1C(=O)N[C@@H](C)c1ccc(C(=O)O)cc1` [ER-885302-00] was tested. Which IC50 did it give?
The IC50 was 261 nM.

With `Cc1nn(C)c(Oc2ccc(Cl)c(Cl)c2)c1C(=O)N[C@@H](C)c1ccc(C(=O)O)cc1` [ER-885716-00] as the compound, how does the IC50 read?
Its IC50 is 92 nM.

Which IC50 does the source give for `Cc1nn(C)c(Oc2ccc(C(F)(F)F)cc2)c1C(=O)N[C@@H](C)c1ccc(C(=O)O)cc1` [ER-885311-00] here?
Its IC50 is 273 nM.

Which IC50 does the source give for `C[C@H](NC(=O)c1c(C(F)(F)F)nn(C)c1Oc1ccc(C(F)(F)F)cc1)c1ccc(C(=O)O)cc1` [ER-888365-00] here?
The IC50 was 28 nM.

With `Cn1nc(C(F)(F)F)c(C(=O)NC2(c3ccc(C(=O)O)cc3)CC2)c1Oc1cccc(C(F)(F)F)c1` [ER-885741-00] as the compound, how does the IC50 read?
Its IC50 is 13 nM.

How did the IC50 turn out when `Cc1nn(C)c(Oc2cccc(C(F)F)c2)c1C(=O)N[C@@H](C)c1ccc(C(=O)O)cc1` [ER-887495-00] was run?
The IC50 was 219 nM.

Which IC50 does the source give for `C[C@H](NC(=O)c1c(C(F)F)nn(C)c1Oc1cccc(OC(F)F)c1)c1ccc(C(=O)O)cc1` [ER-886090-00] here?
The IC50 was 17 nM.

For `C[C@H](NC(=O)c1c(C(F)(F)F)nn(C)c1Oc1cccc(OC(F)F)c1)c1ccc(C(=O)O)cc1` [ER-886082-00], which IC50 is on record?
The IC50 was 88 nM.

For `Cn1nc(C(F)(F)F)c(C(=O)NC2(c3ccc(C(=O)O)cc3)CC2)c1Oc1ccc(Cl)c(Cl)c1` [ER-888363-00], which IC50 is on record?
The IC50 was 8 nM.

`Cc1nn(C)c(Oc2cc(F)ccc2Cl)c1C(=O)N[C@@H](C)c1ccc(C(=O)O)cc1` [ER-886025-00] was tested. Which IC50 did it give?
The IC50 was 4910 nM.

`Cc1nn(C)c(Oc2cccc(OC(F)F)c2)c1C(=O)N[C@@H](C)c1ccc(C(=O)O)cc1` [ER-886080-00] was tested. Which IC50 did it give?
Its IC50 is 58 nM.

With `C[C@H](NC(=O)c1c(C(F)(F)F)nn(C)c1Oc1cccc(C(F)(F)F)c1)c1ccc(C(=O)O)cc1` [ER-885291-00] as the compound, how does the IC50 read?
Its IC50 is 27 nM.

Which IC50 does the source give for `C[C@H](NC(=O)c1c(C(F)(F)F)nn(C)c1Oc1ccc(Cl)c(Cl)c1)c1ccc(C(=O)O)cc1` [ER-886074-00] here?
The IC50 was 10 nM.

With `Cc1nn(C)c(Oc2cccc(Cl)c2)c1C(=O)NC1(c2ccc(C(=O)O)cc2)CC1` [ER-886077-00] as the compound, how does the IC50 read?
Its IC50 is 85 nM.

Which IC50 does the source give for `Cc1nn(C)c(Oc2cc(F)ccc2F)c1C(=O)N[C@@H](C)c1ccc(C(=O)O)cc1` [ER-885720-00] here?
The IC50 was 2220 nM.

With `C[C@H](NC(=O)c1c(C(F)(F)F)nn(C)c1Oc1cccc(C(F)F)c1)c1ccc(C(=O)O)cc1` [ER-887995-00] as the compound, how does the IC50 read?
Its IC50 is 187 nM.

`Cn1nc(C(F)(F)F)c(C(=O)NC2(c3ccc(C(=O)O)cc3)CC2)c1Oc1cccc(Cl)c1` [ER-885743-00] was tested. Which IC50 did it give?
Its IC50 is 38 nM.

With `C[C@H](NC(=O)c1c(C(F)F)nn(C)c1Oc1cccc(Cl)c1)c1ccc(C(=O)O)cc1` [ER-886045-00] as the compound, how does the IC50 read?
Its IC50 is 18 nM.

How did the IC50 turn out when `Cn1nc(C(F)F)c(C(=O)NC2(c3ccc(C(=O)O)cc3)CC2)c1Oc1cccc(C(F)(F)F)c1` [ER-886078-00] was run?
Its IC50 is 9 nM.

How did the IC50 turn out when `C[C@H](NC(=O)c1c(C(F)F)nn(C)c1Oc1ccc(C(F)(F)F)cc1)c1ccc(C(=O)O)cc1` [ER-888367-00] was run?
The IC50 was 23 nM.

How did the IC50 turn out when `Cn1nc(C(F)(F)F)c(C(=O)NC2(c3ccc(C(=O)O)cc3)CC2)c1Oc1ccc(C(F)(F)F)cc1` [ER-888364-00] was run?
Its IC50 is 12 nM.

`C[C@H](NC(=O)c1c(C(F)F)nn(C)c1Oc1cccc(C(F)F)c1)c1ccc(C(=O)O)cc1` [ER-887480-00] was tested. Which IC50 did it give?
The IC50 was 51 nM.

For `Cc1nn(C)c(Oc2cccc(F)c2F)c1C(=O)N[C@@H](C)c1ccc(C(=O)O)cc1` [ER-885719-00], which IC50 is on record?
Its IC50 is 2670 nM.
